Data: the Biogen ADME set (Fang et al. 2023)
In brackets after ≈: the same amount, converted by molar mass.

Conditions: for aqueous solubility: pH 6.8

Row | Compound | intrinsic clearance, human liver microsomes | intrinsic clearance, rat liver microsomes | MDR1-MDCK efflux ratio | aqueous solubility | fraction unbound, human plasma | fraction unbound, rat plasma
1 | C[C@]12CCC3=C4CCC(=O)C=C4CC[C@H]3[C@@H]1CC[C@@]2(O)CC#N | 21 mL/min/kg | 185 mL/min/kg | 3.64 |  |  | 
2 | COc1ccc(-c2nc3cc(C)ccc3cc2CN(C)Cc2nccn2C)cc1 | 296 mL/min/kg | 2500 mL/min/kg | 4.84 | 18 µg/mL (≈ 46.6 µM) |  | 
3 | CC#CCNc1ccc(-n2cnnn2)c(C)c1 | 21.1 mL/min/kg | 131 mL/min/kg | 0.59 | 19.4 µg/mL (≈ 85.4 µM) |  | 
4 | CCCN(Cc1ccccc1)C(=O)CC1(N)CCC1 | ≤ 4.74 mL/min/kg | 725 mL/min/kg | 11.9 | 56.4 µg/mL (≈ 217 µM) |  | 
5 | Clc1ccc(CSc2nc(-c3ccccc3)c[nH]2)cn1 | 229 mL/min/kg | 2880 mL/min/kg | 0.621 |  |  | 
6 | Cc1cc(N(C)CC(C)(C)O)ncc1Br | 36.1 mL/min/kg | 970 mL/min/kg |  |  |  | 
7 | CCN(CC)CCCNc1c2c(nc3ccccc13)CCC2 |  |  |  | 25.4 µg/mL (≈ 85.6 µM) |  | 
8 | c1ccc(-c2nc(CSc3ccc(-n4cccn4)nn3)cs2)cc1 | 75.1 mL/min/kg | 420 mL/min/kg | 0.541 |  |  | 
9 | Cc1[nH]nc2c1C1(CCCCC1)CC(=O)N2 | 8.44 mL/min/kg | 45.6 mL/min/kg | 3.36 |  | 0.21 | 0.193
10 | Cc1ccccc1-n1cc[nH]c(=O)c1=O | 5.09 mL/min/kg | ≤ 10.7 mL/min/kg | 1.26 | 58.4 µg/mL (≈ 289 µM) |  | 
11 | CCn1ncc(-c2cc(C(F)F)nc(NCCCOC)n2)c1C | 43.6 mL/min/kg | 412 mL/min/kg | 0.525 | 44.7 µg/mL (≈ 137 µM) |  | 
12 | CN(C)Cc1ccc(-c2ccccc2C(=O)O)cc1 | ≤ 4.74 mL/min/kg | ≤ 10.7 mL/min/kg |  | 30.5 µg/mL (≈ 119 µM) |  | 
13 | COc1ccc(CN(C)C(=O)C2(C#N)CCC2)cc1 |  |  |  | 56.6 µg/mL (≈ 219 µM) |  | 
14 | O=c1cc(-c2cc(F)c(Cl)nc2Cl)[nH]c2c(-c3ccccc3)c(C(F)(F)F)nn12 | ≤ 4.74 mL/min/kg | 19.4 mL/min/kg | 1.91 |  |  | 
15 | CCC1=Nc2c(cnn2-c2cccc(Cl)c2)C2=NCCCN12 |  |  |  | 53.2 µg/mL (≈ 170 µM) |  | 
16 | c1cncc(-c2nnc3n2[C@H]2CN(Cc4cccs4)C[C@H]2CC3)c1 | 7.21 mL/min/kg | 343 mL/min/kg | 2.69 |  |  | 
17 | Cc1ccsc1C(=O)NCc1ccc2c(c1)OCCCO2 | 53.1 mL/min/kg | 952 mL/min/kg | 0.582 | 56.9 µg/mL (≈ 187 µM) |  | 
18 | CN(C)CCN(Cc1ccccc1)Cc1ccccc1O | 330 mL/min/kg | 1380 mL/min/kg | 0.84 | 41.9 µg/mL (≈ 147 µM) |  | 
19 | CN1CCN(C2=c3ccccc3=Nc3ccc(Cl)cc3N2)CC1 |  |  | 0.8 | 58.2 µg/mL (≈ 178 µM) |  | 
20 | O=C(Nc1cccc(-c2cnco2)c1)C1(c2cccc(F)c2)CCOCC1 | 65.8 mL/min/kg | 257 mL/min/kg | 2.37 | 42.3 µg/mL (≈ 115 µM) |  | 
21 | CCc1nc(C)cc(N2CCCC3(CCNCC3)CC2)n1 | ≤ 4.74 mL/min/kg | ≤ 10.7 mL/min/kg | 32.4 |  |  | 
22 | Cc1csc(CCNc2ncccc2C#N)n1 | 73 mL/min/kg | 876 mL/min/kg |  | 32.1 µg/mL (≈ 131 µM) |  | 
23 | Cc1ccc(-c2ccnc(O)c2C#N)cc1 | ≤ 4.74 mL/min/kg | 18.9 mL/min/kg | 0.966 | 11.7 µg/mL (≈ 55.7 µM) |  | 
24 | Clc1cccc(-c2nnc(Cn3cnc4ccccc43)o2)c1 | 7.23 mL/min/kg | 122 mL/min/kg | 0.866 | 27.4 µg/mL (≈ 88.2 µM) |  | 
25 | O=C(NCc1nnc2n1-c1ccccc1CC2)c1ccc2ccccc2c1 | 28.6 mL/min/kg | 517 mL/min/kg | 6.88 | 34.3 µg/mL (≈ 96.9 µM) |  | 

Continued, values first:

Row | intrinsic clearance, human liver microsomes | intrinsic clearance, rat liver microsomes | MDR1-MDCK efflux ratio | aqueous solubility | fraction unbound, human plasma | fraction unbound, rat plasma | Compound
26 | 43.1 mL/min/kg | 2570 mL/min/kg |  |  |  |  | CN(C)c1ncc(CN2CCC(Cc3ccc(F)cc3)CC2)s1
27 | 127 mL/min/kg | 2000 mL/min/kg | 0.391 | 26.3 µg/mL (≈ 88.1 µM) |  |  | Cc1ccc2oc([C@H]3CCN(Cc4cccs4)C3)nc2c1
28 | 10.5 mL/min/kg | ≤ 10.7 mL/min/kg | 3.63 | 32.9 µg/mL (≈ 122 µM) |  |  | Cc1nc(N2CCn3ccnc3C2)c2cnn(C)c2n1
29 | ≤ 4.74 mL/min/kg | 28 mL/min/kg | 0.631 | 29.3 µg/mL (≈ 128 µM) |  |  | CCCCNC(=O)c1cccc2ncccc12
30 | ≤ 4.74 mL/min/kg | 61.3 mL/min/kg | 0.896 | 45.1 µg/mL (≈ 163 µM) |  |  | O=C(CN1CCCc2ccc(F)cc21)N1CCNC1=O
31 | 32 mL/min/kg | 108 mL/min/kg | 0.97 |  |  |  | Cc1ncsc1-c1cncc(CC2CCCN(C)C2)n1 (stereo not given)
32 | 10.4 mL/min/kg | 209 mL/min/kg | 1.34 | 49.1 µg/mL (≈ 161 µM) |  |  | Cn1c(=O)n(Cc2cccc(OC(F)F)c2)c2cnccc21
33 | ≤ 4.74 mL/min/kg | ≤ 10.7 mL/min/kg | 0.417 |  |  |  | Cc1cc(-n2ccnc2)ccc1C(=O)O
34 | ≤ 4.74 mL/min/kg | ≤ 10.7 mL/min/kg |  |  |  |  | N#Cc1ccc(OC2CCNCC2)cc1
35 | ≤ 4.74 mL/min/kg | 106 mL/min/kg | 1.41 | 39.9 µg/mL (≈ 126 µM) |  |  | CCOc1ccc(C(=O)Nc2cnn(C3CCOCC3)c2)cn1
36 | ≤ 4.74 mL/min/kg | 425 mL/min/kg | 6.32 |  |  |  | COc1cccc(C)c1C(=O)N(C)Cc1ncc[nH]1
37 | 57.1 mL/min/kg | 196 mL/min/kg |  | 32.8 µg/mL (≈ 74 µM) |  |  | CC1(COc2ccc3c(c2)ncn3-c2ccc3cccc(N4CCC(N)CC4)c3n2)COC1
38 | ≤ 4.74 mL/min/kg | 54.6 mL/min/kg | 6.13 | 43.2 µg/mL (≈ 165 µM) |  |  | COc1ccccc1CC(=O)NC1CCN(C)CC1
39 | ≤ 4.74 mL/min/kg | 19 mL/min/kg | 8.75 |  |  |  | O=C(NCc1nc(-c2cnccn2)n[nH]1)C1Cc2ccccc2C1
40 | 121 mL/min/kg | 255 mL/min/kg | 0.642 | 57.3 µg/mL (≈ 172 µM) |  |  | Cc1csc(N(C(=O)c2cc3c(C)nn(C)c3s2)C2CC2)n1
41 | 12.6 mL/min/kg | 1170 mL/min/kg | 1.39 |  |  |  | O=c1c(CO)cc2cc3c(cc2n1Cc1ccccn1)CCC3
42 | 90.5 mL/min/kg | 2250 mL/min/kg | 12.4 | 62.3 µg/mL (≈ 189 µM) |  |  | Cn1ccnc1CN(C(=O)c1[nH]c2ccccc2c1Cl)C1CC1
43 | 39.5 mL/min/kg | 1530 mL/min/kg | 0.675 | 9.5 µg/mL (≈ 34 µM) | 0.00243 |  | c1ccc(-c2ccc(CN3CCCCCCC3)cc2)cc1

Row | intrinsic clearance, human liver microsomes | intrinsic clearance, rat liver microsomes | MDR1-MDCK efflux ratio | aqueous solubility | fraction unbound, human plasma | fraction unbound, rat plasma | Compound
44 |  |  | 0.456 | 0.69 µg/mL (≈ 2.13 µM) |  |  | CCOC(=O)c1ccc(OCC(=O)c2c[nH]c3ccccc23)cc1
45 | ≤ 4.74 mL/min/kg |  | 2.66 |  | 0.827 |  | NC1CCC(C(=O)N2CCC(c3c[nH]c4ncccc34)CC2)C1 (stereo not given)
46 | 18.5 mL/min/kg | 137 mL/min/kg |  |  |  |  | CN1C(=O)c2ccc(C(=O)N3CCN(C4CCCCC4)CC3)cc2C1=O
47 | ≤ 4.74 mL/min/kg |  | 6.76 |  | 0.521 |  | NC1CCCC1C(=O)N1CCC(c2c[nH]c3ncccc23)CC1 (stereo not given)
48 | 56 mL/min/kg | 605 mL/min/kg | 19.3 | 54.4 µg/mL (≈ 157 µM) |  |  | O=C(c1ccccc1-n1cccn1)N1CCN(Cc2cccnc2)CC1
49 | 12.7 mL/min/kg |  | 0.764 |  | 1 |  | NC1CCCC(C(=O)Nc2ccc3[nH]ncc3c2)C1 (stereo not given)
50 |  |  | 0.117 | 0.44 µg/mL (≈ 1.57 µM) |  |  | Cc1cc(F)ccc1NC(=O)c1cccc2cccnc12
51 |  |  | 0.789 | 0.26 µg/mL (≈ 0.704 µM) |  |  | Cc1ccc(-c2nc(CN3C(=O)C(=O)N(C4CCCC4)C3=O)cs2)cc1
52 | 564 mL/min/kg | 1650 mL/min/kg |  | 75.2 µg/mL (≈ 172 µM) |  |  | CCOc1cc2c(cc1CCC(=O)N1CCC(Cc3ncncc3C(N)=O)CC1)CCC2
53 | ≤ 4.74 mL/min/kg | ≤ 10.7 mL/min/kg | 178 |  |  |  | CN1CCc2nc(C(=O)N[C@H]3C[C@@H](C(=O)N(C)C)CC[C@@H]3NC(=O)C(=O)Nc3ccc(Cl)cn3)sc2C1
54 | 227 mL/min/kg | 327 mL/min/kg |  |  |  |  | CC(=O)N1CCCN(Cc2ccc(C(=O)N3CCCC3)cc2)c2ccccc21
55 | 6.43 mL/min/kg | 104 mL/min/kg |  |  |  |  | Cc1cccc(C)c1OCC(=O)N(C)[C@@H]1CC[C@@H](N2CCOCC2)[C@@H]1O
56 | ≤ 4.74 mL/min/kg | 36.9 mL/min/kg |  |  |  |  | Cc1nc(-c2ccncc2)cc(N2CCC(CO)CC2)n1
57 | ≤ 4.74 mL/min/kg | 47.9 mL/min/kg | 3.33 | 39.8 µg/mL (≈ 151 µM) |  |  | CC1(C)CCN(C(=O)NCCOc2cccnc2)C1
58 | ≤ 4.74 mL/min/kg | 15.7 mL/min/kg |  | 15.9 µg/mL (≈ 46.4 µM) |  |  | O=C1CCCN1CCCN1CCC(n2c(=O)[nH]c3ccccc32)CC1
59 | ≤ 4.74 mL/min/kg |  | 42.6 | 67.5 µg/mL (≈ 179 µM) |  |  | N#Cc1cc(F)c(C(=O)Nc2ccnc(NC(=O)[C@H]3C[C@H]3F)c2)c(Cl)c1
60 | ≤ 4.74 mL/min/kg | 35.9 mL/min/kg | 0.772 | 51.6 µg/mL (≈ 198 µM) |  |  | O=C(Cc1ccc(Cl)cc1)NCc1ccncc1
